Residue numbers refer to the chain shown, from its start. Where a SMILES comes first, the peptide text is derived from it. [ ]: non-standard residue; d: D form. pT = C[C@@H](OP(=O)(O)O)[C@H](N)C(=O)O
What was measured:
PDK1[T148A] = biological target: T1, PDK1[T148A] (Homo sapiens, UniProt O15530, T148A); assay: Surface plasmon resonance (BiaCore) binding, PDK1[T148A]; design: made in house; host or cells: human embryonic kidney 293 cells (pEBG2T vector)
T1 sequence (O15530 1-556 T148A): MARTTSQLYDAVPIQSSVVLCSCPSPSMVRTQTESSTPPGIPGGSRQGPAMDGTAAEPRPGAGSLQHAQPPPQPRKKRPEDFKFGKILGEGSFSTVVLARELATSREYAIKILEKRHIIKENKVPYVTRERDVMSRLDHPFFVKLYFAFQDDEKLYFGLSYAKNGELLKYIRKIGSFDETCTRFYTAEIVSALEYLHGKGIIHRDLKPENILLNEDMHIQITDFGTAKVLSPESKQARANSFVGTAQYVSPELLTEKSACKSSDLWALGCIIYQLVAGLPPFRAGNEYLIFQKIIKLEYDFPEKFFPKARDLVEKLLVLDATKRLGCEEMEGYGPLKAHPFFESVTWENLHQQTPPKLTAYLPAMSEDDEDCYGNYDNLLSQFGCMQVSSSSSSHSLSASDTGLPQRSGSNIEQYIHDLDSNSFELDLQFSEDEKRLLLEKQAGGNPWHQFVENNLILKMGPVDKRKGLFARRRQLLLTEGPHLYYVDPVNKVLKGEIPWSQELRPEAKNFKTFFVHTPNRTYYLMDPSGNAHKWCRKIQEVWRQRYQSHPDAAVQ
Method: (§1) Binding and activation of wild type and mutant forms of PDK1 to a phosphopeptide derived from the hydrophobic motif of S6K1. The binding of the wild type (wt) PDK1 and indicated mutants to a phosphopeptide comprising the hydrophobic motif of S6K1 (S6K-pHM: […]*YVAPSV, where T* indicates phospho-threonine, SEQ ID NO:104) was analysed by surface plasmon resonance as described in the Materials and Methods.
(§2) A. The sensor chip SA was coated with 12RUs of the biotinylated S6K-pHM peptide and the binding was analysed following injection of 270 nM wild type PDK1, PDK1 [T148A] and PDK1 [K76A]. […] (data not shown).
(§3) B. As in A. except that binding was analysed over a range of PDK1 concentrations (2-2150 nM). The response level at the steady state binding is plotted versus the log of the PDK1 concentration. The estimated Kd was obtained by fitting the data to a sigmoid curve using Kaleidagraph software.
(§4) Binding was analysed in a BiaCore 3000 system (BiaCore AB, Stevenage, UK). Biotinylated S6K-pHM (Biotin-C12-[…](P)YVAPSV) (SEQ ID NO:104) or the non-phosphorylated form of this peptide S6K-HM was bound to an streptavidin-coated Sensor chip (SA) (12 response units, RU). […] Steady state binding was determined at each concentration. Dissociation of PDK1 from the phospho-peptide was monitored over a 1 min period. […]

PDK1[K76A] = biological target: T2, PDK1[K76A] (Homo sapiens, UniProt O15530, K76A); assay: Surface plasmon resonance (BiaCore) binding, PDK1[K76A]; details: relative to wild type PDK1
T2 construct: made in house; host or cells: human embryonic kidney 293 cells (pEBG2T vector)
T2 sequence (O15530 1-556 K76A): T1 sequence (O15530 1-556 T148A) with K76A, A148T
Method: as §1, §2, §3, §4

With `CC(C)C[C@H](NC(=O)[C@H](Cc1ccccc1)NC(=O)[C@@H](NC(=O)[C@H](CCC(N)=O)NC(=O)[C@H](CC(N)=O)NC(=O)[C@H](C)NC(=O)[C@H](CO)NC(=O)[C@H](CCC(=O)O)NC(=O)[C@@H](N)CO)C(C)C)C(=O)NCC(=O)N[C@@H](Cc1ccccc1)C(=O)N[C@H](C(=O)N[C@@H](Cc1ccc(O)cc1)C(=O)N[C@H](C(=O)N[C@@H](C)C(=O)N1CCC[C@H]1C(=O)N[C@@H](CO)C(=O)N[C@H](C(=O)O)C(C)C)C(C)C)[C@@H](C)OP(=O)(O)O` [S6K-pHM] (H-SESANQVFLGF[pT]YVAPSV-OH; N-terminus and C-terminus assumed) the “dissociation of PDK1[T148A] from peptide compared with wild type PDK1 or PDK1[K76A]” value (PDK1[T148A]; BiaCore, 270 nM PDK1) was “markedly slower”, the “higher affinity of PDK1[T148A] than wild type PDK1” value (PDK1[T148A]; relative to wild type PDK1) was “about 10 fold” and the “lower affinity of PDK1[K76A] than wild type PDK1” value (PDK1[K76A]) was 3 fold.

Reference: patent US7792665B2, “Method for designing a compound based on the three dimensional structure of phosphoinositide dependent protein kinase 1 (PDK1)” (Medical Research Council, priority 2002, dated 2010)
